Experimental data: patent US10487089B2, “Imaging agents and methods of identifying same” (The Trustees of the University of Pennsylvania, priority 2014, dated 2019)
Entries after “also recorded” stand apart in the source; their conditions may differ. Read-outs that look alike come from different tables or passages of the source. Blank lines part the entries; values can stand above or below the molecule they belong to.

How the values were obtained:
HeLa cells [1] = test: Confocal microscopy of stained live HeLa cells (subcellular localization, cell permeability); conditions: for staining specificity / subcellular localization: confocal microscopy
Excerpt: (§3) Confocal microscopy was done on a Yokogawa spinning disk inverted microscope with a 100× lens. Each batch of stained cells was imaged by exciting with a 488 nm laser while observing at 503-545 nm (the green overlay images), exciting with a 561 nm laser while observing at 583-650 nm (the red overlay images), and by DIC (the grey images) (FIG. 8).
(§4) A 444 nm excitation was required to image with compounds 2 and 3 (FIG. 18).

HeLa cells [2] = test: Toxicity to HeLa cells on a 24 h timescale (live-cell imaging)
HeLa cells [3] = test: One-hundred-time-point timelapse microscopy (photostability / resistance to photobleaching); type: cell-based; conditions: for photostability compared with commercial dyes: vs Lysotracker Red / Mitotracker Red, 100 laser pulses of 300 ms; for loss of intensity over 100 scans: 100 pulses of 300 ms, maximum intensity of the image tracked; for decrease in intensity after 100 scans: 300 ms/scan, HeLa cells
Method: One-hundred-time-point microscopy experiments were performed to evaluate photostability and/or resistance to photobleaching in comparison with the commercial dyes of lysotracker and mitotracker. […] For these experiments, each sample was pulsed 100 times for 300 ms and the maximum intensity of the image was tracked over time. […] Mitotracker was more robust than lysotracker, losing only 34% of its intensity over the 100 scans, while compound 3 lost only ˜13%. The most robust dye discovered thus far is monomethylated-3 (Me-3), which lost only ˜5% of its intensity over 100 scans.
This was determined via one-hundred-time-point timelapse microscopy experiments in which the […] intensity of the image was monitored over 100 laser pulses of 300 ms (FIG. 42).
To investigate photostability of 2 and 3, timelapse microscopy experiments were carried out.

[4] = Photophysical properties (absorption, emission, extinction coefficient, quantum yield); type: physicochemical
Excerpt: n-Butyllithium in hexanes was purchased from Acros and titrated with diphenylacetic acid, which was recrystallized from toluene. All other reagents were purchased from Sigma Aldrich and used without further purification. Solvents were purchased from either Sigma Aldrich or Fisher Scientific. Anhydrous solvents were purchased from Fisher Scientific and dried by passing through an alumina column of a solvent purification system. Silica gel (230-400 mesh) used for column chromatography was purchased from Silicycle. Thin layer chromatography plates (250 μm thickness) were purchased from Sorbent Technologies. Revered-phase column chromatography was done using a RediSep Rf Gold C18 column on a Teledyne Isco CombiFlash Rf system. High-performance liquid chromatography (HPLC) was performed on a Jasco HPLC system using a Phenomenex column (Luna 5u C18(2) 100A; 250×4.60 mm, 5 micron). UV absorption spectra were obtained on a Jasco V-650 spectrophotometer using a 1 cm path length quartz cuvette. Fluorescence emission spectra were taken on a Horiba Jobin-Yvon FluoroLog using a 1 cm path length fluorescence quartz cuvette. ^1H-NMR and ^13C-NMR were recorded on either a Bruker DMX 500 (500 MHz) or a Bruker AVII 500 (500 MHz). High-resolution mass spectrometry was performed using a Waters LCT Premier XE Mass Spectrometer (model KE 332). […] was performed using a Bruker APEX2-DUO CCD X-ray Diffractometer. Photoreactions were carried out in a Rayonet Photochemical Reactor (model RPR-100). Quantum yield was determined by serial dilution method using coumarine 153 (in ethanol, Φ=0.38) and fluorescein (in NaOH 0.1 M, Φ=0.95) as standards (Yvon, A guide to recording Fluorescence Quantum Yields, http://www.horiba.com/fileadmin/uploads/Scientific/Documents/Fluorescence/quantumyie ldstrad.pdf, accessed Jul. 13, 2014; Brouwer, 2011, Pure Appl. Chem. 83: 2213-2228)

[5] = system: mitochondria of HeLa cells; test: Co-staining with mitotracker red, Pearson colocalization correlation; type: cell-based
Method: (§1) Pearson correlations were done after co-staining with mitotracker or lysotracker to evaluate specificity.
(§2) Confirmation of the supposed lysosome and mitochondria staining was achieved by doing co-staining experiments with Lysotacker Red™ and Mitortracker Red™, respectively. A Pearson colocalization correlation (PCC) of 0.75 was determined from a costaining experiments in which HeLa cells were incubated with E/Z-2 and Lysotracker. The imperfect correlation is due to higher specificity for a subset of vesicles stained by the Lysotracker.

HeLa cells [6] = system: HeLa cells
lysosomes of HeLa cells = test: Co-staining with lysotracker red, Pearson colocalization correlation; type: cell-based
Method: as §1, §2

[7] = in ethanol; cited from earlier work
[8] = Variable temperature 1H-NMR of E/Z interconversion; type: physicochemical; conditions: DMF-d7, coalescence at 45° C.
Excerpt: A rapid and efficient synthesis of the desired photoactivatable probe starting with commercially available 2-cyanopyridine (FIG. 52). 2-cyanopyridine was elaborated to thioketone A using methods similar to those previously reported (Rarig et al., 2013, J. Am. Chem. Soc. 135: 9213-9219, which is incorporated by reference in its entirety for all purposes). Homocoupling of A, using copper powder in toluene under refluxing conditions, yielded 1,1′-diazaxanthilidene 10 as an interconverting mixture of E and Z isomers in 84% yield (FIG. 43). Methylation of 10 with dimethyl sulfate afforded the desired monomethylated product 11-E/11-Z in 96% yield. The overall yield of the probe from commercial starting materials after 6 steps was 24% (FIGS. 43 and 52). Single crystals of 10-E and 11-Z were obtained by slow evaporation from chloroform:methanol (1:1) and water, respectively. […] Variable temperature ^1H-NMR (J. Sandström, 1982, Dynamic NMR spectroscopy, Academic Press, London, New York) of 10-E/10-Z in deuterated N,N-dimethylformamide confirmed the dynamic interconversion of the E and Z isomers at room temperature.

HeLa cells [9] = system: HeLa cells; remark: listed apart in the source
Excerpt: as §3, §4

Excerpt for Solubility (DMSO, water): Water solubility would then be evaluated first by simply doing an aqueous extraction.

Structure (SMILES): C[n+]1cccc2oc3cccc4c5cccc6oc7cccnc7c(c65)c(c34)c21 [Compound 12]
Stokes shift [4]: 108 nm
Abs λmax ([4]; in water): 504 nm
Em λmax ([4]; in water): 612 nm
extinction coefficient ε ([4]; solvent: water): 11496 M⁻¹ cm⁻¹
quantum yield Φ ([4]; solvent: water): 0.100

Structure (SMILES): C[n+]1ccc2c(c1)Oc1ccccc1/C2=C1/c2ccccc2Oc2c[n+](C)ccc21 [E/Z-6]
staining specificity / subcellular localization (HeLa cells [1]): stains lysosomes

Structure (SMILES): c1cc2oc3cnccc3c3c2c(c1)c1cccc2oc4cnccc4c3c21 [Compound 3, 9,14-diaza-benzo[1,2,3-kl:6,5,4-k′l′]dixanthene]
Pearson correlation with mitotracker red [5]: 0.75
toxicity to HeLa cells (HeLa cells [6]): non-toxic
loss of intensity over 100 scans (HeLa cells [3]): ~13%
decrease in intensity after 100 scans (HeLa cells [3]): only a slight decrease in intensity

Structure (SMILES): ClCc1ccc(C2=c3cc4c5c(c3Oc3c2cc2c6c3CCCN6CCC2)CCC[N+]=5CCC4)cc1.[Cl-] [Mitotracker, reference compound]
loss of intensity over 100 scans (HeLa cells [3]): 34%

Structure (SMILES): O=c1cc(C(F)(F)F)c2cc3c4c(c2o1)CCCN4CCC3 [coumarine 153]
quantum yield Φ of standard [7]: 0.38

Structure (SMILES): C[n+]1ccc2c(c1)oc1cccc3c4cccc5oc6cnccc6c(c54)c2c13 [Me-3, 9-Me-9,14-diaza-benzo[1,2,3-kl:6,5,4-k′l′]dixanthene]
Pearson correlation with lysotracker red (lysosomes of HeLa cells): 0.25
loss of intensity over 100 scans (HeLa cells [3]): ~5%

Structure (SMILES): C[n+]1ccc2c(c1)oc1cccc3c4cccc5oc6c[n+](C)ccc6c(c54)c2c13 [DiMe-3, 9,14-dimethyl-9,14-diaza-benzo[1,2,3-kl:6,5,4-k′l′]dixanthene]
toxicity to HeLa cells (HeLa cells [6]): non-toxic
staining specificity / subcellular localization (HeLa cells [1]): staining lysosomes; also recorded: specific for punctuate organelles; also recorded: lysosomal subcellular specificity
cell permeability (HeLa cells [9]): cell permeable

The next lines start with results.

cell permeability (HeLa cells [1]): cell permeable
water solubility (Solubility (DMSO, water)): water-solubility
photostability compared with commercial dyes (HeLa cells [3]): superior
Structure (SMILES): C[n+]1ccc2c(c1)Oc1ccccc1/C2=C1/c2ccccc2Oc2c[n+](C)ccc21 [DiMe-E-1, (E)-3,3′-dimethyl-[5,5′-bichromeno[2,3-c]pyridinylidene]-3,3′-diium]
staining specificity / subcellular localization (HeLa cells [1]): specific for punctuate organelles; also recorded: lysosomal subcellular specificity
toxicity to HeLa cells (HeLa cells [2]): non-toxic

solubility in DMSO (Solubility (DMSO, water); DMSO): poor solubility
Structure (SMILES): c1ccc2c(c1)Oc1cnccc1/C2=C1\c2ccccc2Oc2cnccc21 (racemic) [E/Z-1, 3,3′-diazaxanthylidene]

cell permeability (HeLa cells [1]): cell permeable
water solubility (Solubility (DMSO, water)): water-solubility
photostability compared with commercial dyes (HeLa cells [3]): superior
Structure (SMILES): C[n+]1ccc2c(c1)Oc1ccccc1/C2=C1\c2ccccc2Oc2c[n+](C)ccc21 [DiMe-Z-1, (Z)-N, N′-dimethyl-3,3′-diazaxanthylidene]
staining specificity / subcellular localization (HeLa cells [1]): specific for punctuate organelles; also recorded: lysosomal subcellular specificity
toxicity to HeLa cells (HeLa cells [2]): non-toxic

loss of intensity over 100 scans (HeLa cells [3]): 80%
Structure (SMILES): CN(C)CCNC(=O)CCc1ccc2n1[B-](F)(F)[N+]1=C(c3ccc[nH]3)C=CC1=C2 [lysotracker, reference compound]

loss of intensity over 100 scans (HeLa cells [3]): ~30%
Structure (SMILES): C[n+]1ccc2c(c1)Oc1ccccc1/C2=C1/c2ccccc2Oc2cnccc21 [Me-E-1, (E)-2-methyl-[5,5′-bichromeno[2,3-c]pyridinylidene]-2-ium]
staining specificity / subcellular localization (HeLa cells [1]): lysosome-specific stain
staining specificity / subcellular localization (HeLa cells [1]; listed as Me-1): lysosome-specific stain
staining specificity / subcellular localization (HeLa cells [1]; listed as monomethylated 3,3′-DAXAZ): good lysosomal stain
Pearson correlation with lysotracker red (lysosomes of HeLa cells): 0.75

decrease in intensity after 100 scans (HeLa cells [3]): only a slight decrease in intensity
photostability compared with commercial dyes (HeLa cells [3]): superior
Structure (SMILES): c1ccc2c(c1)oc1cncc3c4cccc5oc6cnccc6c(c54)c2c13 [Compound 2, chromeno[2,3,4-de]pyrido[3′,4′:2,3]chromeno[4,5-gh]isoquinoline;2,9-diaza-benzo[1,2,3-kl:6,5,4-k′l′]dixanthene]
Pearson correlation with mitotracker red [5]: 0.75
cell permeability (HeLa cells [1]): cell permeable; also recorded: cell-permeable
staining specificity / subcellular localization (HeLa cells [1]): staining mitochondria; also recorded: selectively stain mitochondria rather than the nucleus; also recorded: mitochondria-specific dyes; also recorded: localize primarily in the mitochondria; also recorded: stains mitochondria and additional structures
toxicity to HeLa cells (HeLa cells [2]): non-toxic

activation energy ΔG‡ of E/Z interconversion [8]: 65.7 kJ/mol
Structure (SMILES): c1ccc2c(c1)Oc1cccnc1/C2=C1\c2ccccc2Oc2cccnc21 (racemic) [10-E/10-Z, 1,1′-diazaxanthilidene]

cell permeability (HeLa cells [1]): cell permeable
water solubility (Solubility (DMSO, water)): water-solubility
Structure (SMILES): C[n+]1ccc2c(c1)oc1cccc3c4c[n+](C)cc5oc6ccccc6c(c54)c2c13 [DiMe-2, 2,9-dimethylchromeno[2,3,4-de]pyrido[3′,4′:2,3]chromeno[4,5-gh]isoquinoline-2,9-diium]
staining specificity / subcellular localization (HeLa cells [1]): specific for punctuate organelles; also recorded: lysosomal subcellular specificity
toxicity to HeLa cells (HeLa cells [2]): non-toxic
